According to PubChem BioAssay (NCI):
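Grown in 96-well plates, cells were treated for 48 hours with each compound at five concentrations. Insufficient inhibition: endpoint recorded as highest concentration tested. The concentration for full growth arrest is given as TGI.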

Legend:
Assay in all cases: NCI-60 cell line screen, 48 h
[1] = system: ACHN renal
[2] = system: TK-10 renal
[3] = system: RXF 393 renal
[4] = system: SN12C renal
[5] = system: HOP-92 NSCLC
[6] = system: OVCAR-8 ovarian
[7] = system: SNB-78 CNS
[8] = system: DMS 273 small cell lung
[9] = system: LOX IMVI melanoma
[10] = system: SK-MEL-28 melanoma
[11] = system: HT29 colon
[12] = system: SNB-19 CNS
[13] = system: OVCAR-4 ovarian
[14] = system: OVCAR-5 ovarian
[15] = system: EKVX NSCLC
[16] = system: KM12 colon
[17] = system: SF-268 CNS
[18] = system: SW-620 colon
[19] = system: RPMI-8226 leukemia
[20] = system: UACC-62 melanoma
[21] = system: NCI-H460 lung
[22] = system: HCT-15 colon
[23] = system: HOP-18 NSCLC
[24] = system: HCT-116 colon
[25] = system: KM20L2 colon
[26] = system: HCC-2998 colon
[27] = system: M19-MEL melanoma
[28] = system: COLO 205 colon
[29] = system: A549 NSCLC
[30] = system: M14 melanoma
[31] = system: OVCAR-3 ovarian
[32] = system: LXFL 529 NSCLC
[33] = system: HL-60(TB) leukemia
[34] = system: CCRF-CEM leukemia
[35] = system: UACC-257 melanoma
[36] = system: UO-31 renal
[37] = system: SNB-75 CNS
[38] = system: SK-MEL-2 melanoma
[39] = system: SK-MEL-5 melanoma
[40] = system: IGROV1 ovarian
[41] = system: HOP-62 NSCLC
[42] = system: U251 CNS
[43] = system: K-562 leukemia
[44] = system: NCI-H23 lung
[45] = system: NCI-H226 lung
[46] = system: DMS 114 small cell lung
[47] = system: SF-539 CNS
[48] = system: 786-0 renal
[49] = system: DLD-1 colon
[50] = system: NCI-H522 lung
[51] = system: XF 498 CNS
[52] = system: MALME-3M melanoma
[53] = system: SF-295 CNS
[54] = system: CAKI-1 renal
[55] = system: SR leukemia
[56] = system: MOLT-4 leukemia
[57] = system: SK-OV-3 ovarian
[58] = system: A498 renal
[59] = system: RXF-631 renal

NCc1ccccc1-c1c2nc(c(-c3ccccc3CN)c3ccc([nH]3)c(-c3ccccc3CN)c3nc(c(-c4ccccc4CN)c4ccc1[nH]4)C=C3)C=C2
TGI [1]: 35.3 µM | TGI [2]: 63.1 µM | TGI [3]: 43 µM | TGI [4]: 39.8 µM | TGI [5]: 22.2 µM | TGI [6]: > 100 µM | TGI [7]: 40.9 µM | TGI [8]: 46.4 µM | TGI [9]: 56.3 µM | TGI [10]: 43.4 µM | TGI [11]: > 100 µM | TGI [12]: 43.5 µM | TGI [13]: 51.2 µM | TGI [14]: 33.8 µM | TGI [15]: 48.7 µM | TGI [16]: 50.7 µM | TGI [17]: > 100 µM | TGI [18]: > 100 µM | TGI [19]: 32.3 µM | TGI [20]: 54.1 µM | TGI [21]: 66.7 µM | TGI [22]: 49.4 µM | TGI [23]: 8.81 µM | TGI [24]: 32.5 µM | TGI [25]: 63 µM | TGI [26]: 76.3 µM | TGI [27]: 50.7 µM | TGI [28]: 97.7 µM | TGI [29]: 46.9 µM | TGI [30]: 48.7 µM | TGI [31]: 39.2 µM | TGI [32]: 46.5 µM | TGI [33]: 33.3 µM | TGI [34]: 27.1 µM | TGI [35]: 47.7 µM | TGI [36]: 42.6 µM | TGI [37]: 24.7 µM | TGI [38]: 73.9 µM | TGI [39]: 63.7 µM | TGI [40]: 59.4 µM | TGI [41]: 60.4 µM | TGI [42]: 51.6 µM | TGI [43]: 35.5 µM | TGI [44]: 58.4 µM | TGI [45]: 33.4 µM

[N-]=[N+]=N[C@H]1C[C@@H](CO)O[C@H]1n1cnc2c(N)ncnc21
TGI [1]: > 100 µM | TGI [2]: > 100 µM | TGI [4]: > 100 µM | TGI [5]: > 100 µM | TGI [6]: > 100 µM | TGI [7]: > 100 µM | TGI [8]: > 100 µM | TGI [9]: > 100 µM | TGI [10]: > 100 µM | TGI [11]: > 100 µM | TGI [12]: > 100 µM | TGI [13]: > 100 µM | TGI [14]: > 100 µM | TGI [15]: > 100 µM | TGI [16]: > 100 µM | TGI [46]: > 100 µM | TGI [17]: > 100 µM | TGI [47]: > 100 µM | TGI [18]: > 100 µM | TGI [21]: > 100 µM | TGI [48]: > 100 µM | TGI [23]: > 100 µM | TGI [24]: > 100 µM | TGI [25]: > 100 µM | TGI [26]: > 100 µM | TGI [49]: > 100 µM | TGI [27]: > 100 µM | TGI [28]: > 100 µM | TGI [29]: > 100 µM | TGI [50]: > 100 µM | TGI [30]: > 100 µM | TGI [31]: > 100 µM | TGI [32]: > 100 µM | TGI [51]: > 100 µM | TGI [33]: > 100 µM | TGI [35]: > 100 µM | TGI [52]: > 100 µM | TGI [36]: > 100 µM | TGI [37]: > 100 µM | TGI [53]: > 100 µM | TGI [38]: > 100 µM | TGI [39]: > 100 µM | TGI [41]: > 100 µM | TGI [54]: > 100 µM | TGI [42]: > 100 µM | TGI [44]: > 100 µM | TGI [45]: > 100 µM

C1CN2CCN3CCN4CCN1[P+]243
TGI [1]: > 100 µM | TGI [2]: > 100 µM | TGI [3]: > 100 µM | TGI [55]: > 100 µM | TGI [4]: > 100 µM | TGI [6]: > 100 µM | TGI [7]: > 100 µM | TGI [8]: > 100 µM | TGI [9]: > 100 µM | TGI [10]: > 100 µM | TGI [11]: > 100 µM | TGI [12]: > 100 µM | TGI [13]: > 100 µM | TGI [14]: > 100 µM | TGI [15]: > 100 µM | TGI [16]: > 100 µM | TGI [46]: > 100 µM | TGI [47]: > 100 µM | TGI [18]: > 100 µM | TGI [19]: > 100 µM | TGI [20]: > 100 µM | TGI [56]: > 100 µM | TGI [21]: > 100 µM | TGI [48]: > 100 µM | TGI [22]: > 100 µM | TGI [23]: > 100 µM | TGI [24]: > 100 µM | TGI [25]: > 100 µM | TGI [26]: > 100 µM | TGI [49]: > 100 µM | TGI [27]: > 100 µM | TGI [28]: > 100 µM | TGI [29]: > 100 µM | TGI [50]: > 100 µM | TGI [30]: > 100 µM | TGI [31]: > 100 µM | TGI [32]: > 100 µM | TGI [51]: > 100 µM | TGI [33]: > 100 µM | TGI [34]: > 100 µM | TGI [35]: > 100 µM | TGI [52]: > 100 µM | TGI [57]: > 100 µM | TGI [36]: > 100 µM | TGI [37]: > 100 µM | TGI [53]: > 100 µM | TGI [38]: > 100 µM | TGI [58]: > 100 µM | TGI [39]: > 100 µM | TGI [40]: > 100 µM | TGI [41]: > 100 µM | TGI [42]: > 100 µM | TGI [43]: > 100 µM | TGI [44]: > 100 µM | TGI [45]: > 100 µM

CC1c2c(Cl)nc3ccccc3c2Oc2c1c(Cl)nc1ccccc21
TGI [1]: > 100 µM | TGI [2]: > 100 µM | TGI [3]: > 100 µM | TGI [5]: > 100 µM | TGI [6]: > 100 µM | TGI [7]: > 100 µM | TGI [8]: > 100 µM | TGI [9]: > 100 µM | TGI [10]: > 100 µM | TGI [11]: > 100 µM | TGI [12]: > 100 µM | TGI [14]: > 100 µM | TGI [15]: > 100 µM | TGI [16]: > 100 µM | TGI [46]: > 100 µM | TGI [17]: > 100 µM | TGI [47]: > 100 µM | TGI [18]: > 100 µM | TGI [19]: > 100 µM | TGI [56]: > 100 µM | TGI [21]: > 100 µM | TGI [48]: > 100 µM | TGI [23]: > 100 µM | TGI [24]: > 100 µM | TGI [25]: > 100 µM | TGI [26]: > 100 µM | TGI [49]: > 100 µM | TGI [27]: > 100 µM | TGI [28]: > 100 µM | TGI [29]: > 100 µM | TGI [50]: > 100 µM | TGI [31]: > 100 µM | TGI [32]: > 100 µM | TGI [33]: > 100 µM | TGI [34]: > 100 µM | TGI [35]: > 100 µM | TGI [52]: > 100 µM | TGI [57]: > 100 µM | TGI [36]: > 100 µM | TGI [37]: > 100 µM | TGI [53]: > 100 µM | TGI [38]: > 100 µM | TGI [58]: > 100 µM | TGI [39]: > 100 µM | TGI [40]: > 100 µM | TGI [41]: > 100 µM | TGI [42]: > 100 µM | TGI [43]: > 100 µM | TGI [44]: > 100 µM

C/C(Cc1ccccc1)=N\NC(N)=S
TGI [1]: > 100 µM | TGI [3]: > 100 µM | TGI [4]: > 100 µM | TGI [5]: > 100 µM | TGI [7]: > 100 µM | TGI [8]: > 100 µM | TGI [9]: > 100 µM | TGI [10]: > 100 µM | TGI [12]: > 100 µM | TGI [13]: > 100 µM | TGI [46]: > 100 µM | TGI [47]: > 100 µM | TGI [19]: > 100 µM | TGI [20]: > 100 µM | TGI [56]: > 100 µM | TGI [21]: > 100 µM | TGI [22]: > 100 µM | TGI [23]: > 100 µM | TGI [25]: > 100 µM | TGI [59]: > 100 µM | TGI [27]: > 100 µM | TGI [28]: > 100 µM | TGI [30]: > 100 µM | TGI [32]: > 100 µM | TGI [51]: > 100 µM | TGI [33]: > 100 µM | TGI [34]: > 100 µM | TGI [57]: > 100 µM | TGI [37]: > 100 µM | TGI [58]: > 100 µM | TGI [40]: > 100 µM | TGI [42]: > 100 µM | TGI [43]: > 100 µM | TGI [44]: > 100 µM
